According to patent publication US7932384B2, “Reverse-turn mimetics and method relating thereto” (Choongwae Pharma Corporation, priority 2001, dated 2011):

Legend:
[1] = system: TCF/β-catenin reporter gene transcription; experiment: TOPFLASH luciferase assay in differentiated PC-12 PS-1/L286V cells; format: cell-based, Rat; settings: PS-1/L286V mutant PC-12 cells, 10 μM plus NGF
Experimental: Differentiated PC-12/L286V cells were treated with increasing concentrations of this compound for 4 hours. Transfection was then initiated after this treatment period.
Transfection. PC-12 cells were cultured and differentiated on 60-mm dishes. At the end of the 10-day differentiation period, cells were transfected with 2 μg reporter constructs, TOPFLASH and FOPFLASH, per 60-mm dish. Transfections were performed using Superfect (Qiagen) according to manufacturer's instructions.
Luciferase Assays. Cells were lysed, 6 hours after transfections, in 100 μl of Cell Culture Lysis Reagent (Promega, Madison, Wis.), and scraped into microcentrifuge tubes. Tubes were then centrifuged briefly (about 10 seconds) at 12000 rpm to pellet cell debris. Luciferase activity was measured on 20 μl of cell lysate and 100 μl substrate from the Luciferase Assay System (Promega). Luciferase activity was measure using Packard LumiCount. (Hewlett Packard). Quantitation of luciferase was performed in triplicates, and repeated in at least three independent experiments.

[2] = system: Ephrin B2 (EphB2) receptor; experiment: EphB2 receptor expression (immunofluorescence and RT-PCR) in PC-12 PS-1/L286V cells; format: cell-based, Rat; settings: PS-1/L286V mutant PC-12 cells, 10 μM
Experimental: Immunofluorescence. Cells were plated at a density of 10,000 cells/cm^2 on sterile coated 22×22 mm coverslips in a 6-well culture plate. Differentiation was initiated, as previously described, for 10 days. The differentiated cells were then fixed in methanol for 15 minutes at −20° C. This is followed by a 15 minutes incubation with PBS+0.1% Triton X-100. The coverslips were incubated with antibodies raised against Ephrin B2 Receptor (Santa Cruz Biotechnology) and Gap-43 (Novus Biologicals) for 40 minutes at 37° C. After a series of washes with PBS-Triton X-100, secondary antibody conjugated to FITC (Jackson ImmunoResearch, Westgrove, Pa.) was applied. All slides images were acquired using a Nikon PCM2000 Laser Scanning Confocal Microscope mounted on a Nikon Eclipse E600 upright microscope (Nikon, Melville, N.Y.).
RT-PCR. To analyze the mRNA levels for Ephrin B2 (EphB2) receptor, total RNA was isolated using Trizol (Invitrogen-GIBCO-BRL, Baltimore, Md.) from differentiated cells. 2 μg RNA was reverse transcribed in a total volume of 20 μl with random hexamer (50 ng), and using the Superscript II reverse transcription system (Invitrogen-GIBCO-BRL), according to manufacturer's guidelines. PCR was carried out in a 50 μl volume containing 5 μl cDNA, 100 pmol primers, 100 μM dNTPs, 1×Taq buffer and 1.5 mM MgCl2. […]

[3] = system: SW480 cells; experiment: Flow cytometric analysis (FACS) of cell cycle, SW480; format: cell-based; settings: SW480, 25 μM, 24 hours
Experimental: For FACS analysis, approx. 5×10^6 cells from Compound D-treated or vehicle-treated were fixed with 70% chilled ethanol and stored at −20° C. for at least 30 minutes. The cells were washed once with 1×PBS and incubated with propidium iodine (PI) solution (85 μg/ml propidium iodine, 0.1% Nonidet P-40, 10 mg/ml RNAse) for 30 minutes at room temperature. 10,000 stained cells for each sample were acquired using Beckman Coulter EPICS XL-MCL Flow Cytometry and the percentage of cells in different phase of the cell cycle was determined by Expo32 ADC software (Coulter Corporation, Miami, Fla., 33196).
It has been shown that inhibition of the expression of the cyclin D1 gene causes arrest at the G1/S-phase of the cell cycle (Shintani et al., “Infrequent alternations of RB pathway (Rb-p16INK4A-cyclin D1) in adenoid cystic carcinoma of salivary glands,” Anticancer Res. 20:2169-75 (2000)). […] The cells were subsequently stained with propidium iodide (PI) and analyzed for DNA content by FACS cytofluorometry.

[4] = system: caspase-3/7 in SW480 cells; experiment: Caspase-3/7 activity assay, SW480; format: cell-based; settings: SW480, 25 μM, 24 hours, compared to CCD18Co cells
Experimental: SW480, HCT116, and CCD18Co cells were plated at 10^5 cells per well (96-well plates) for 24 hours prior to treatment. […] 24 hours post treatment, cells were lysed and caspase activity was measured using a caspase-3/7 activity kit (Apo-One Homogeneous caspase-3/7 assay, #G77905, Promega). Relative fluorescence units (RFU) were obtained by subtracting the unit values of the blank (control, without cells) from the experimental measured values.
Caspases are cysteine proteases that are generally activated in a given population of cells triggered by apoptotic stimuli.

[5] = system: surviving promoter; experiment: Survivin promoter luciferase reporter in wild type, CBP+/−, p300+/− 3T3 cells; format: cell-based; settings: with or without Wnt1
Source text: A plasmid containing luciferase under the control of surviving promoter was constructed and transfected into wild type, CBP+/−, or p300+/−3T3 cells.

[6] = system: survivin promoter; experiment: Survivin luciferase reporter in SW480 cells; format: cell-based; settings: SW480 cells, various concentrations
[7] = system: Ubiquitin; experiment: Real time RT-PCR gene expression, Ubiquitin; format: cell-based; settings: 25 μM, 24 hours; <0.5 significant decrease, >1.5 significant increase
Experimental: (§1) Real time reverse transcription-PCR analysis was performed according to the protocol provided with the SYBR Green PCR Master Mix Kit (Perkin Elmer Biosystems, Shelton, ST). […] The primers used for the RT-PCR reactions were [NT] and [NT].

[8] = system: GADPH; experiment: Real time RT-PCR gene expression, GADPH; format: cell-based; settings: 25 μM, 24 hours; <0.5 significant decrease, >1.5 significant increase
Experimental: as §1

[9] = system: HLAC; experiment: Real time RT-PCR gene expression, HLAC; format: cell-based; settings: 25 μM, 24 hours; <0.5 significant decrease, >1.5 significant increase
Experimental: as §1

[10] = system: survivin; experiment: Real time RT-PCR gene expression, Survivin; format: cell-based; settings: 25 μM, 24 hours; <0.5 significant decrease, >1.5 significant increase
Experimental: as §1

[11] = system: Antigen KI-67; experiment: Real time RT-PCR gene expression, Antigen KI-67; format: cell-based; settings: 25 μM, 24 hours; <0.5 significant decrease, >1.5 significant increase
Experimental: as §1

[12] = system: MIC-1; experiment: Real time RT-PCR gene expression, MIC-1; format: cell-based; settings: 25 μM, 24 hours; <0.5 significant decrease, >1.5 significant increase
Experimental: as §1

[13] = system: surviving promoter; experiment: ChIP assay on SW480 cells (survivin promoter occupancy); format: cell-based; settings: SW480, 25 μM, 18 hours
[14] = system: surviving protein; experiment: Western blot analysis of survivin protein; format: cell-based; settings: 10 μM or 25 μM
[15] = system: surviving protein; experiment: Survivin immunofluorescence microscopy in SW480 cells; format: cell-based
[16] = molecular target: β-catenin/CBP interaction (Homo sapiens, UniProt Q92793); settings: Emami et al., Cancer Cell, in press; cited from earlier work
β-catenin/CBP interaction, sequence (Q92793 whole entry): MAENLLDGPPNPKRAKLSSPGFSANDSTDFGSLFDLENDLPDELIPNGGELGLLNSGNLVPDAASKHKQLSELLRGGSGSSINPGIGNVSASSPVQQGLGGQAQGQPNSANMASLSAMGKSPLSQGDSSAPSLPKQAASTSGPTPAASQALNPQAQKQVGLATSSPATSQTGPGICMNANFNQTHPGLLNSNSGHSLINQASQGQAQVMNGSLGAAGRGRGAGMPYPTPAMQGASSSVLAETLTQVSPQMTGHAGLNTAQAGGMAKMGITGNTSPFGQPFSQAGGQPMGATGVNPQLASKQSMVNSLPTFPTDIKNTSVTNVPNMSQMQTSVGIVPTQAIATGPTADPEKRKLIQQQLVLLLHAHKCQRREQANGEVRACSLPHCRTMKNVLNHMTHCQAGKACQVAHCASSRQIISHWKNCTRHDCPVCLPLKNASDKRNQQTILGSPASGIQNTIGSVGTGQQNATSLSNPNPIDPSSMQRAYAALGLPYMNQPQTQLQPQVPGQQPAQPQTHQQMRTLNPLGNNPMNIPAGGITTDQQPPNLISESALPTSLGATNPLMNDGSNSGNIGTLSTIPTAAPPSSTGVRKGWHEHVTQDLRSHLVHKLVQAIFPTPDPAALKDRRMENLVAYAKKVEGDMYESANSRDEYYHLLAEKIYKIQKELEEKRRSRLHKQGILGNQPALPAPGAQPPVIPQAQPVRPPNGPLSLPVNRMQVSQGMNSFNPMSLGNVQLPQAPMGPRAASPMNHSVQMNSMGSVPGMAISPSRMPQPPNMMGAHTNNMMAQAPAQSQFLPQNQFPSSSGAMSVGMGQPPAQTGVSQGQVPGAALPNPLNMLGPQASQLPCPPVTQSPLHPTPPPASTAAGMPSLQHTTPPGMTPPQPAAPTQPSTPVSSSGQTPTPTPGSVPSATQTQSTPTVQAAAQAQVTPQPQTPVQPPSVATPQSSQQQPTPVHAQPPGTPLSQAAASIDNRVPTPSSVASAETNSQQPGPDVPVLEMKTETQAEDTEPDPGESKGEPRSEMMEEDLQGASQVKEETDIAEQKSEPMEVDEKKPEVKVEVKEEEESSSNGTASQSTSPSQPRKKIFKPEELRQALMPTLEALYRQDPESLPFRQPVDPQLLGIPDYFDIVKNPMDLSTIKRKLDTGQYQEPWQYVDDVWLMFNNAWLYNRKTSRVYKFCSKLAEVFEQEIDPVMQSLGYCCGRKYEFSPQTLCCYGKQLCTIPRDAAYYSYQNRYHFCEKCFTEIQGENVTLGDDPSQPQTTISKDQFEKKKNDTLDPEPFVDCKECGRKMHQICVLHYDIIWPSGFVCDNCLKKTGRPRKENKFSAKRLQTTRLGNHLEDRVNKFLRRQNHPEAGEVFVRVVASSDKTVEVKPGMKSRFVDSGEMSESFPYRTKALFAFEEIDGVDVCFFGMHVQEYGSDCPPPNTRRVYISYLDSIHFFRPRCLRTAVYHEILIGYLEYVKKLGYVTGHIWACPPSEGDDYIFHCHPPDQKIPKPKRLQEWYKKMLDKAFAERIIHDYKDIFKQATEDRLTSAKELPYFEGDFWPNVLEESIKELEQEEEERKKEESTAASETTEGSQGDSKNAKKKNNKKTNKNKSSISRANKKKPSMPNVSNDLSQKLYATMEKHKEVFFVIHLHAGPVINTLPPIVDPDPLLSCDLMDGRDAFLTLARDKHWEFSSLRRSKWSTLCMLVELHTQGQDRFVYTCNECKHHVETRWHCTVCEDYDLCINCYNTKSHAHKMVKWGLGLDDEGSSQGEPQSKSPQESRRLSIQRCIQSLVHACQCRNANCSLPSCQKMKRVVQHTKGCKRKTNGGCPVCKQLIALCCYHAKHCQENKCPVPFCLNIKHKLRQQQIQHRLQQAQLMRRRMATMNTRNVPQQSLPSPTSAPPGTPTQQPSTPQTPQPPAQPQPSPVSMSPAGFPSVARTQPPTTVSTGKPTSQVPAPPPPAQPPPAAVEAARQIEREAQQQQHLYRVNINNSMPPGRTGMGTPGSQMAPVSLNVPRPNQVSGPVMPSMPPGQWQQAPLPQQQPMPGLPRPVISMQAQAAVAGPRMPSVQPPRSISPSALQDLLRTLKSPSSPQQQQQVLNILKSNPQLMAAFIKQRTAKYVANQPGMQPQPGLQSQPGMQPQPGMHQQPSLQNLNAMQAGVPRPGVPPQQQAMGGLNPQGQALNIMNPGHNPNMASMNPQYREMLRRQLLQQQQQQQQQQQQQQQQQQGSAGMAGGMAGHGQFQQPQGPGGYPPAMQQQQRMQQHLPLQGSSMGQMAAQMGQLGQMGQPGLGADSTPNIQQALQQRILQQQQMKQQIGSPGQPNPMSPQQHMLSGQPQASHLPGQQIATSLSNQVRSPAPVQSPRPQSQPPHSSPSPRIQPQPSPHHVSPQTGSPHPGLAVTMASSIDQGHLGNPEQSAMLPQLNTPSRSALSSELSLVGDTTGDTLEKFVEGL

O=C1[C@H](Cc2ccc(O)cc2)N2C(=O)CCN(C(=O)NCc3ccccc3)[C@H]2CN1Cc1cccc2ccccc12 [Compound D]
TCF/β-catenin reporter gene transcription [1]: decreased TCF/β-catenin reporter gene transcription | EphB2 message (RT-PCR) [2]: increased EphB2 message | cell cycle distribution (FACS, PI) [3]: increased accumulation at G1/S-phase of the cell cycle | caspase-3/7 activity [4]: specifically and significantly activated the caspase-3/7 pathway | survivin gene expression (promoter luciferase) [5]: reduces expression of the surviving gene | survivin expression (luciferase reporter) [6]: inhibit expression of surviving in SW480 cells | Ratio (Treated/DMSO Control) Ubiquitin [7]: 0.98 | Ratio (Treated/DMSO Control) GADPH [8]: 0.98 | Ratio (Treated/DMSO Control) HLAC [9]: 1.01 | Ratio (Treated/DMSO Control) Survivin [10]: 0.30 | Ratio (Treated/DMSO Control) Antigen KI-67 [11]: 0.45 | Ratio (Treated/DMSO Control) MIC-1 [12]: 7.0 | association of CBP, β-catenin, Tcf4 and acetylated histone with the survivin promoter (ChIP) [13]: decreases the association of all these proteins with the surviving promoter | amount of survivin protein (Western blot) [14]: reduced the amount of the surviving protein | survivin protein (immunofluorescence microscopy) [15]: little or no surviving protein was detected | blocking of β-catenin/CBP interaction [16]: selectively blocks the β-catenin/CBP interaction
